Each structure is given as a SMILES string. Bounds are passed on as bounds.

The assay addresses T1, human IL-17AA (Homo sapiens, UniProt Q16552).
T1 construct: host or cells: HEK (human embryonic kidney) cells
T1 sequence (Q16552 24-155): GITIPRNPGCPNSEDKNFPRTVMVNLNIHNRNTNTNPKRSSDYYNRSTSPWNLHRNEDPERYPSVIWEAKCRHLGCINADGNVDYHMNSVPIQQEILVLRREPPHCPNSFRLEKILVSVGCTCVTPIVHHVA
As to the kind of experiment: IL-8 release assay in human epithelial keratinocytes adult (HEKa). Format: cell-based. To be noted: HEKa cells, 3 ng/mL HEK-human IL-17AA + 10 ng/mL human TNFalpha; read-out: Rel EC50 IL-8 release assay. The gist of the method:
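IL-8 release, quantified by HTRF and normalized to controls, reports IL-17 signaling in HEKa cells treated with compound plus final 3 ng/mL IL-17AA (HEK-derived) and 10 ng/mL TNF-alpha for 68-72 h; TNF-alpha-only wells set 100% inhibition. Four-parameter logistic fits (r^2>0.9) give relative IC50 and Emax; PrestoBlue flags cytotoxicity.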
In the case of `Cc1n[nH]c(C)c1-c1ccc(NC(=O)[C@@H](NC(=O)c2ccnn2C)[C@@H]2CCCC3(CC3)C2)cc1` [Example 241, N-[(1S)-2-[4-(3,5-dimethyl-1H-pyrazol-4-yl)anilino]-2-oxo-1-[(7R)-spiro[2.5]octan-7-yl]ethyl]-2-methyl-pyrazole-3-carboxamide], the 50% effective concentration (EC50) is 0.1 to 1 µM. The result for `Cc1n[nH]c(C)c1-c1ccc(NC(=O)[C@H](CC2CC2)NC(=O)c2ccnn2C)cc1` [Example 243, N-[(1S)-1-(cyclopropylmethyl)-2-[4-(3,5-dimethyl-1H-pyrazol-4-yl)anilino]-2-oxo-ethyl]-2-methyl-pyrazole-3-carboxamide] reads over 1 µM; that for `Cc1n[nH]c(C)c1-c1ccc(NC(=O)[C@@H](NC(=O)c2ccnn2C)C(C(C)C)C(C)C)cc1` [Example 244], under 0.1 µM. With `Cc1n[nH]c(C)c1-c1ccc(NC(=O)[C@@H](NC(=O)c2ccnn2C)C2C(C)(C)C2(C)C)cc1` [Example 245, N-[(1S)-2-[4-(3,5-dimethyl-1H-pyrazol-4-yl)anilino]-2-oxo-1-(2,2,3,3-tetramethylcyclopropyl)ethyl]-2-methyl-pyrazole-3-carboxamide], the EC50 lay within 0.1 to 1 µM. `Cc1n[nH]c(C)c1-c1ccc(NC(=O)[C@@H](NC(=O)c2ccnn2C)C2[C@H]3CCCC[C@@H]23)cc1` (stereo partly drawn) [Example 246, N-[(1S)-2-[4-(3,5-dimethyl-1H-pyrazol-4-yl)anilino]-1-[(1S,6R)-norcaran-7-yl]-2-oxo-ethyl]-2-methyl-pyrazole-3-carboxamide]: the EC50 fell in the range of 0.1 to 1 µM.

Take `Cc1n[nH]c(C)c1-c1ccc(NC(=O)[C@@H](NC(=O)c2ccnn2C)[C@H]2CCc3c(F)cc(F)cc32)cc1` [Example 249, N-[(1S)-1-[(1S)-4,6-difluoroindan-1-yl]-2-[4-(3,5-dimethyl-1H-pyrazol-4-yl)anilino]-2-oxo-ethyl]-2-methyl-pyrazole-3-carboxamide]: the EC50 is under 0.1 µM. The result for `Cc1n[nH]c(C)c1-c1ccc(NC(=O)[C@@H](NC(=O)c2ccnn2C)[C@H]2CCCC3(CC3)C2)cc1` [Example 250, N-[(1S)-2-[4-(3,5-dimethyl-1H-pyrazol-4-yl)anilino]-2-oxo-1-[(7S)-spiro[2.5]octan-7-yl]ethyl]-2-methyl-pyrazole-3-carboxamide] reads under 0.1 µM. The result for `Cc1n[nH]c(C)c1-c1ccc(NC(=O)C(NC(=O)c2ccnn2C(C)C)C2CCCC2C)cc1` (centres unmarked) [Example 251, N-[2-[4-(3,5-dimethyl-1H-pyrazol-4-yl)anilino]-1-(2-methylcyclopentyl)-2-oxo-ethyl]-2-isopropyl-pyrazole-3-carboxamide] reads under 0.1 µM. The result for `Cc1n[nH]c(C)c1-c1ccc(NC(=O)[C@H](CC2CCC(F)(F)CC2)NC(=O)c2ccnn2C)cc1` [Example 253, N-[(1S)-1-[(4,4-difluorocyclohexyl)methyl]-2-[4-(3,5-dimethyl-1H-pyrazol-4-yl)anilino]-2-oxo-ethyl]-2-methyl-pyrazole-3-carboxamide] reads over 1 µM; that for `Cc1n[nH]c(C)c1-c1ccc(NC(=O)C(NC(=O)c2ccnn2C)[C@H]2CCCc3ccc(F)cc32)cc1` (some centres unmarked) [Example 261], under 0.1 µM; that for `Cc1n[nH]c(C)c1-c1ccc(NC(=O)[C@@H](NC(=O)c2ccnn2C)[C@@H]2CCCc3c(F)cc(Br)cc32)cc1` [Example 262], 0.1 to 1 µM. Turning to `Cc1n[nH]c(C)c1-c1ccc(NC(=O)[C@@H](NC(=O)c2conc2C(C)C)C2CCC3(CC2)CC3)cc1` [Example 263, N-[(1S)-2-[4-(3,5-dimethyl-1H-pyrazol-4-yl)anilino]-2-oxo-1-spiro[2.5]octan-6-yl-ethyl]-3-isopropyl-isoxazole-4-carboxamidet], the EC50 lay in the range of 0.1 to 1 µM. The result for `CCn1nccc1C(=O)N[C@H](C(=O)Nc1ccc(-c2c(C)n[nH]c2C)cc1)C1CCC2(CC1)CC2` [Example 264, N-[(1S)-2-[4-(3,5-dimethyl-1H-pyrazol-4-yl)anilino]-2-oxo-1-spiro[2.5]octan-6-yl-ethyl]-2-ethyl-pyrazole-3-carboxamide] reads 0.1 to 1 µM; that for `Cc1n[nH]c(C)c1-c1ccc(NC(=O)C(NC(=O)c2ccnn2C(C)C)C2CCC(C)(C)C2)cc1` (centres unmarked) [Example 265, N-[1-(3,3-dimethylcyclopentyl)-2-[4-(3,5-dimethyl-1H-pyrazol-4-yl)anilino]-2-oxo-ethyl]-2-isopropyl-pyrazole-3-carboxamide], 0.1 to 1 µM. With `Cc1n[nH]c(C)c1-c1ccc(NC(=O)C(NC(=O)c2ccnn2C)C2CCC(C)(C)C2)cc1` (centres unmarked) [Example 266, N-[1-(3,3-dimethylcyclopentyl)-2-[4-(3,5-dimethyl-1H-pyrazol-4-yl)anilino]-2-oxo-ethyl]-2-methyl-pyrazole-3-carboxamide], the EC50 lay in the range of 0.1 to 1 µM. As for `Cc1n[nH]c(C)c1-c1ccc(NC(=O)[C@@H](NC(=O)c2ccnn2C)C2[C@H]3CCC[C@@H]23)cc1` (stereo partly drawn) [Example 267, N-[(1S)-1-[(1S,5R)-6-bicyclo[3.1.0]hexanyl]-2-[4-(3,5-dimethyl-1H-pyrazol-4-yl)anilino]-2-oxo-ethyl]-2-methyl-pyrazole-3-carboxamide], the EC50 is over 1 µM. The result for `CCn1nncc1C(=O)N[C@H](C(=O)Nc1ccc(-c2c(C)n[nH]c2C)cc1)C(C1CC1)C1CC1` [Example 270, N-[(1S)-1-(dicyclopropylmethyl)-2-[4-(3,5-dimethyl-1H-pyrazol-4-yl)anilino]-2-oxo-ethyl]-3-ethyl-triazole-4-carboxamide] reads 0.1 to 1 µM; that for `CCn1nncc1C(=O)N[C@H](C(=O)Nc1ccc(-c2c(C)n[nH]c2C)cc1)C(C1CCC1)C1CCC1` [Example 271, N-[(1S)-1-[di(cyclobutyl)methyl]-2-[4-(3,5-dimethyl-1H-pyrazol-4-yl)anilino]-2-oxo-ethyl]-3-ethyl-triazole-4-carboxamide], under 0.1 µM. In the case of `Cc1n[nH]c(C)c1-c1ccc(NC(=O)[C@@H](NC(=O)c2cnnn2C)C(C2CCC2)C2CCC2)cc1` [Example 272, N-[(1S)-1-[di(cyclobutyl)methyl]-2-[4-(3,5-dimethyl-1H-pyrazol-4-yl)anilino]-2-oxo-ethyl]-3-methyl-triazole-4-carboxamide], the EC50 was under 0.1 µM. The result for `Cc1n[nH]c(C)c1-c1ccc(NC(=O)[C@@H](NC(=O)c2cnnn2C(C)C)C(C2CCC2)C2CCC2)cc1` [Example 273, N-[(1S)-1-[di(cyclobutyl)methyl]-2-[4-(3,5-dimethyl-1H-pyrazol-4-yl)anilino]-2-oxo-ethyl]-3-isopropyl-triazole-4-carboxamide] reads under 0.1 µM; that for `Cc1nocc1C(=O)N[C@H](C(=O)Nc1ccc(-c2c(C)n[nH]c2C)cc1)C(C1CCC1)C1CCC1` [Example 274, N-[(1S)-1-[di(cyclobutyl)methyl]-2-[4-(3,5-dimethyl-1H-pyrazol-4-yl)anilino]-2-oxo-ethyl]-3-methyl-isoxazole-4-carboxamide], under 0.1 µM; that for `Cc1n[nH]c(C)c1-c1ccc(NC(=O)[C@@H](NC(=O)c2nccn2C)C2CCCCC2)cc1` [Example 275, N-[(1S)-1-cyclohexyl-2-[4-(3,5-dimethyl-1H-pyrazol-4-yl)anilino]-2-oxo-ethyl]-1-methyl-imidazole-2-carboxamide], over 1 µM. For `CCc1nocc1C(=O)N[C@H](C(=O)Nc1ccc(-c2c(C)n[nH]c2C)cc1)C1CCCCC1` [Example 276, N-[(1S)-1-cyclohexyl-2-[4-(3,5-dimethyl-1H-pyrazol-4-yl)anilino]-2-oxo-ethyl]-3-ethyl-isoxazole-4-carboxamide], the EC50 is under 0.1 µM.

Broadly, the EC50 is the midpoint of the concentration-response curve.

Values taken from patent publication US11377425B1, “Small molecule modulators of IL-17” (LEO Pharma A/S, priority 2018, dated 2022).
